Laboratory results as given in PMC4919643, “Intestinally-targeted TGR5 agonists equipped with quaternary ammonium have an improved hypoglycemic effect and reduced gallbladder filling effect” (Scientific Reports, 2016).

System: ob/ob mice
Assay: Acute efficacy (blood glucose) in ob/ob mice
Format: in vivo, mouse
Settings: 100 mg/kg p.o. single dose
Procedure: Mice were refed at 6 h after dosing. *p < 0.05, **p < 0.01 vs. control. Error bar indicates SEM.
Acute efficacy in ob/ob mice. 7-week-old ob/ob mice (male) were divided into three groups (n = 8) based on 2 h-fasted blood glucose. […]
mg/kg) and 0.25% CMC (control) was then orally administered to 2 h-fasted mice, and blood glucose was measured at 2, 4, 6, 8, 10, and 24 h after dosing. The animals were refed at 6 h after dosing.
GLP-1 secretion in ob/ob mice. The ob/ob mice (female) were divided into 4 groups and […]
then divided into 3 subgroup of different time point (n = 8-9 each subgroup). All the animals were fasted for 6 hours before collecting blood samples at the indicated time points. At other times, animals were free accessed to water and food. […] Concentrations of active GLP-1[7-36 amide] in the serum were measured using ELISA kit from Linco Research. […]
administered to 12 h-fasted ob/ob mice (n = 3 per time point). […] After centrifugation at 11000 rpm for 5 mins, the supernatant was analyzed by LC-MS/MS. […]
administered orally to overnight-fasted ob/ob mice (male, n = 3-6). 1 h after dosing, mice were refed for 3 hours, and then gallbladders were removed, and the area was measured using vernier caliper. The relative gallbladder area was calculated from the length multiplied by the width of the gallbladder. The bile weight was measured using […]

Structure (SMILES): CN(CC[N+](C)(C)C)C(=O)CCc1cc(Cl)c(Oc2ccsc2C(=O)N2CCN(C3CC3)c3ccccc32)cc1Cl [Compound 26a]
- time post-dosing until which glucose-lowering effect was maintained: at least 24 h
